# Literature values in patent US6936590B2, “C-aryl glucoside SGLT2 inhibitors and method” (Bristol Myers Squibb Company, priority 2001, dated 2005).
# What was measured:
# [1] = molecular target: T1, human SGLT2 (Homo sapiens, UniProt P31639); conditions: read-out: Km values for uptake
# T1 sequence (P31639 1-672): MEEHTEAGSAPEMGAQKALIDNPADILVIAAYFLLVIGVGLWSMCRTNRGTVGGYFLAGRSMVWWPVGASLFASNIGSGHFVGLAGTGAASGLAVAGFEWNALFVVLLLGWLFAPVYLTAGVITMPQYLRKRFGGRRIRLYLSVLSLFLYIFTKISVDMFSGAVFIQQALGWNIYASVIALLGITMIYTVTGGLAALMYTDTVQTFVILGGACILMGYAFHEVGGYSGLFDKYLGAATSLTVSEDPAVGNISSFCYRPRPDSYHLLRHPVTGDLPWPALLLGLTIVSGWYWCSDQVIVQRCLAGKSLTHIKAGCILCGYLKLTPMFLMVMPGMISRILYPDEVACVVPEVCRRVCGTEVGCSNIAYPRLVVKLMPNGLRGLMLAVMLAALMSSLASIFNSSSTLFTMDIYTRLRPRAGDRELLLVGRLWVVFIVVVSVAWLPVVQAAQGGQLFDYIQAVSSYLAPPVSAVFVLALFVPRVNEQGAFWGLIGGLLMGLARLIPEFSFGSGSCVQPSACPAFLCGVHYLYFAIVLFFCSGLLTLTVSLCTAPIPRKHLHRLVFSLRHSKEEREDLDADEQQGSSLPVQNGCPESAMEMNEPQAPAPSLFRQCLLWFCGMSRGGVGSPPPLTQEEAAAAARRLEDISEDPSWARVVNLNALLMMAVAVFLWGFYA
# [2] = molecular target: T2, human SGLT1 (Homo sapiens, UniProt P13866); conditions: read-out: Km values for uptake
# T2 sequence (P13866 1-664): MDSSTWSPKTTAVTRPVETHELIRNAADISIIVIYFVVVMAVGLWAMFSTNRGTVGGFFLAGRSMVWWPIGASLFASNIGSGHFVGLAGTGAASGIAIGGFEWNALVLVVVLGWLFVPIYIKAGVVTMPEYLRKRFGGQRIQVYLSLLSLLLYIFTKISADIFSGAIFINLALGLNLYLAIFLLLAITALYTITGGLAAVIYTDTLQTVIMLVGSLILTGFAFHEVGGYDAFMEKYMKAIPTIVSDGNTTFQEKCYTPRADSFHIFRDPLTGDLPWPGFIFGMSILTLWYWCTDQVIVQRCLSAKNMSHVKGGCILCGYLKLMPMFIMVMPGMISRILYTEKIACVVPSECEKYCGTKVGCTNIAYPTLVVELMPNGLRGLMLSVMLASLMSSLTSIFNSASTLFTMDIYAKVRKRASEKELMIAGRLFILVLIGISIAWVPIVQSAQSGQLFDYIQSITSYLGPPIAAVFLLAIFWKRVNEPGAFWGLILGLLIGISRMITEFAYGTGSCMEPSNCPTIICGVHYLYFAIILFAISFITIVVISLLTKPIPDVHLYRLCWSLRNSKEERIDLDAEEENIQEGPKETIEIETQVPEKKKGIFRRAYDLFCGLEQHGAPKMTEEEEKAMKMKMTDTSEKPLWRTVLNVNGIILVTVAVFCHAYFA
# [3] = tested on: SGLT activity
Compound,Km [1] [µM],Km [2] [µM],"adverse effects on plasma ion balance, renal function or renal morphology ([3]; phlorizin treatment for as long as two weeks)",effect on glucose excretion and plasma glucose ([3]; several diabetic rodent models and one canine diabetes model)
"CO[C@H]1O[C@H](CO)[C@@H](O)[C@H](O)[C@H]1O [AMG, α-methyl-D-glucopyranoside]",1600,400,–,–
O=C(CCc1ccc(O)cc1)c1c(O)cc(O)cc1O[C@@H]1O[C@H](CO)[C@@H](O)[C@H](O)[C@H]1O [phlorizin],–,–,"No adverse effects on plasma ion balance, renal function or renal morphology have been observed","promoting glucose excretion, lowering fasting and fed plasma glucose, and promoting glucose utilization without hypoglycemic side effects"
